Measurements as given in ChEMBL document CHEMBL4024706 (Eur J Med Chem, 2017).

Columns and labels:
[1] = target: Epidermal growth factor receptor (Homo sapiens, UniProt P00533); test: Inhibition of recombinant human N-terminal GST-tagged wild-type EGFR (695 to end residues) expressed in baculovirus infected Sf9 insect cells using poly (Glu,Tyr)4:1 as substrate pretreated for 60 mins followed by substrate addition after 1 hr by ADP-Glo luminescence assay
[2] = Growth inhibition of human M07e cells; type: functional; settings: Homo sapiens, M-07e
[3] = AUC (0 to t) in Sprague-Dawley rat at 10 mg/kg, po by LC-MS/MS method; type: ADME, organism-based; settings: in vivo
[4] = target: ALK tyrosine kinase receptor (Homo sapiens) (UniProt Q9UM73); test: Inhibition of wild-type human partial length ALK (I1088 to E1409 residues) expressed in mammalian expression system assessed as residual activity at 1 uM by Kinomescan method relative to control
[5] = tested on: ALK tyrosine kinase receptor (Homo sapiens), Q9UM73 [L1196M]; test: Inhibition of […] human partial length ALK L1196M mutant (I1088 to E1409 residues) expressed in mammalian expression system assessed as residual activity at 1 uM by Kinomescan method relative to control
[6] = target: Bone morphogenetic protein receptor type-1A (Homo sapiens) (UniProt P36894); test: Inhibition of wild-type human partial length BMPR1A (Q214 to I532 residues) expressed in bacterial expression system assessed as residual activity at 1 uM by Kinomescan method relative to control
[7] = target: Calcium/calmodulin-dependent protein kinase type 1G (Homo sapiens) (UniProt Q96NX5); test: Inhibition of wild-type human partial length CAMK1G (M1 to A342 residues) expressed in bacterial expression system assessed as residual activity at 1 uM by Kinomescan method relative to control
[8] = target: Casein kinase I isoform gamma-2 (Homo sapiens) (UniProt P78368); test: Inhibition of wild-type human full length CSNK1G2 (M1 to K415 residues) expressed in bacterial expression system assessed as residual activity at 1 uM by Kinomescan method relative to control
[9] = target: Casein kinase I isoform gamma-3 (Homo sapiens) (UniProt Q9Y6M4); test: Inhibition of wild-type human full length CSNK1G3 (M1 to K447 residues) expressed in bacterial expression system assessed as residual activity at 1 uM by Kinomescan method relative to control
[10] = target: Epithelial discoidin domain-containing receptor 1 (Homo sapiens) (UniProt Q08345); test: Inhibition of wild-type human partial length DDR1 (R565 to V876 residues) expressed in bacterial expression system assessed as residual activity at 1 uM by Kinomescan method relative to control
[11] = target: Mitogen-activated protein kinase 1 (Homo sapiens) (UniProt P28482); test: Inhibition of wild-type human full length ERK2 (M1 to S360 residues) expressed in bacterial expression system assessed as residual activity at 1 uM by Kinomescan method relative to control
[12] = target: Mitogen-activated protein kinase 6 (Homo sapiens) (UniProt Q16659); test: Inhibition of wild-type human partial length ERK3 (M1 to P413 residues) expressed in bacterial expression system assessed as residual activity at 1 uM by Kinomescan method relative to control
[13] = target: Cyclin-G-associated kinase (Homo sapiens) (UniProt O14976); test: Inhibition of wild-type human partial length GAK (G13 to Y338 residues) expressed in bacterial expression system assessed as residual activity at 1 uM by Kinomescan method relative to control
[14] = target: Serine/threonine-protein kinase MAK (Homo sapiens) (UniProt P20794); test: Inhibition of wild-type human partial length MAK (M1 to P314 residues) expressed in bacterial expression system assessed as residual activity at 1 uM by Kinomescan method relative to control
[15] = target: MAP kinase-activated protein kinase 5 (Homo sapiens) (UniProt Q8IW41); test: Inhibition of wild-type human partial length MAPKAPK5 (M1 to D322 residues) expressed in mammalian expression system assessed as residual activity at 1 uM by Kinomescan method relative to control
[16] = target: Misshapen-like kinase 1 (Homo sapiens) (UniProt Q8N4C8); test: Inhibition of wild-type human partial length MINK (M1 to K312 residues) expressed in mammalian expression system assessed as residual activity at 1 uM by Kinomescan method relative to control
[17] = target: Serine/threonine-protein kinase MRCK beta (Homo sapiens) (UniProt Q9Y5S2); test: Inhibition of wild-type human partial length MRCKB (L56 to S417 residues) expressed in bacterial expression system assessed as residual activity at 1 uM by Kinomescan method relative to control
[18] = target: Macrophage-stimulating protein receptor (Homo sapiens) (UniProt Q04912); test: Inhibition of wild-type human partial length MST1R (I1057 to L1363 residues) expressed in bacterial expression system assessed as residual activity at 1 uM by Kinomescan method relative to control
[19] = target: Serine/threonine-protein kinase 38 (Homo sapiens) (UniProt Q15208); test: Inhibition of wild-type human partial length NDR1 (N33 to E449 residues) expressed in mammalian expression system assessed as residual activity at 1 uM by Kinomescan method relative to control
[20] = target: Serine/threonine-protein kinase Nek1 (Homo sapiens) (UniProt Q96PY6); test: Inhibition of wild-type human partial length NEK1 (M1 to K278 residues) expressed in bacterial expression system assessed as residual activity at 1 uM by Kinomescan method relative to control
[21] = target: Mitogen-activated protein kinase 11 (Homo sapiens) (UniProt Q15759); test: Inhibition of wild-type human full length p38-beta (M1 to Q364 residues) expressed in bacterial expression system assessed as residual activity at 1 uM by Kinomescan method relative to control
[22] = target: Cyclin-dependent kinase 16 (Homo sapiens) (UniProt Q00536); test: Inhibition of wild-type human partial length PCTK1 (G160 to A474 residues) expressed in mammalian expression system assessed as residual activity at 1 uM by Kinomescan method relative to control
[23] = target: Phosphatidylinositol 4,5-bisphosphate 3-kinase catalytic subunit alpha isoform (Homo sapiens) (UniProt P42336); test: Inhibition of wild-type human partial length PIK3CA (R108 to N1068 residues) expressed in mammalian expression system assessed as residual activity at 1 uM by Kinomescan method relative to control
[24] = target: Serine/threonine-protein kinase PLK1 (Homo sapiens) (UniProt P53350); test: Inhibition of wild-type human partial length PLK1 (A33 to F325 residues) expressed in mammalian expression system assessed as residual activity at 1 uM by Kinomescan method relative to control
[25] = target: cGMP-dependent protein kinase 1 (Homo sapiens) (UniProt Q13976); test: Inhibition of wild-type human partial length PRKG1 (L339 to F686 residues) expressed in bacterial expression system assessed as residual activity at 1 uM by Kinomescan method relative to control
[26] = target: Serine/threonine-protein kinase PRP4 homolog (Homo sapiens) (UniProt Q13523); test: Inhibition of wild-type human partial length PRP4 (D657 to I1007 residues) expressed in bacterial expression system assessed as residual activity at 1 uM by Kinomescan method relative to control
Chain of Serine/threonine-protein kinase PRP4 homolog (Homo sapiens) (Q13523 whole entry, the tested form may be a part): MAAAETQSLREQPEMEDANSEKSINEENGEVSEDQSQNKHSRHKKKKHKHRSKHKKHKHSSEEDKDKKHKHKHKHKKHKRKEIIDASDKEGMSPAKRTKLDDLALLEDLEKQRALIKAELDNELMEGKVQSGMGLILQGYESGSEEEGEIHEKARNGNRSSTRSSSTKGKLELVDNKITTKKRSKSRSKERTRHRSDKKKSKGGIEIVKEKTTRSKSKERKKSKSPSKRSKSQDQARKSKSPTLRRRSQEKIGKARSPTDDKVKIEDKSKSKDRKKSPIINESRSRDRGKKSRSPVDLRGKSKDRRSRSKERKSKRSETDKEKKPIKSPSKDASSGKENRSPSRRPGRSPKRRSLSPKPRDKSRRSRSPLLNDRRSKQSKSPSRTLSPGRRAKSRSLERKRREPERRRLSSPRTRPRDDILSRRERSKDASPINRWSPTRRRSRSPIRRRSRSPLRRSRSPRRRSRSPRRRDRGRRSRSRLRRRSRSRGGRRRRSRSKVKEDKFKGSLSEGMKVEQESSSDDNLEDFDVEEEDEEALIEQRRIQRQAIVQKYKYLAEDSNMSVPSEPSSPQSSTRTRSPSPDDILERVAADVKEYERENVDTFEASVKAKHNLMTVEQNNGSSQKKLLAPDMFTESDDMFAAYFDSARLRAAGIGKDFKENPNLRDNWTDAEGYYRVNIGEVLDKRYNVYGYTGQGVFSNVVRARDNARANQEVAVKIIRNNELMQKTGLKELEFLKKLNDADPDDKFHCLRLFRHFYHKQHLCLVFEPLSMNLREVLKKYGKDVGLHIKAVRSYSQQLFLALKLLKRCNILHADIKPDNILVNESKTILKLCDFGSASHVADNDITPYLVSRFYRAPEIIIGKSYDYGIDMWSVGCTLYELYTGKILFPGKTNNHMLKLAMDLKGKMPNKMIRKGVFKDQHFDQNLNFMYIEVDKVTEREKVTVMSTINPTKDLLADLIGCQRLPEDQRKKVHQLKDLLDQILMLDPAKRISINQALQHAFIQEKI

Chain of Calcium/calmodulin-dependent protein kinase type 1G (Homo sapiens) (Q96NX5 whole entry, the tested form may be a part, canonical isoform): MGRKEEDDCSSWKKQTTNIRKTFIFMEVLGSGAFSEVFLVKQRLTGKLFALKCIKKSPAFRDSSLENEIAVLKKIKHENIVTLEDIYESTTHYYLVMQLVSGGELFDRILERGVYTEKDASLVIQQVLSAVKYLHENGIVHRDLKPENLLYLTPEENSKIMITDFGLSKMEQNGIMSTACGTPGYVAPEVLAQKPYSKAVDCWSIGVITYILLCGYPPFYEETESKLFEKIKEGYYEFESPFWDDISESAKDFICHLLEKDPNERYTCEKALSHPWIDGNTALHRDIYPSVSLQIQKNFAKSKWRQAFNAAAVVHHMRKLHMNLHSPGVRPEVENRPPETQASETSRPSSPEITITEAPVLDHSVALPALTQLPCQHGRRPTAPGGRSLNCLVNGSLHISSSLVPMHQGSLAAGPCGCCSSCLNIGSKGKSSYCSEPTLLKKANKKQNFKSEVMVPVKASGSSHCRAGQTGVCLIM
Chain of Epithelial discoidin domain-containing receptor 1 (Homo sapiens) (Q08345 whole entry, the tested form may be a part): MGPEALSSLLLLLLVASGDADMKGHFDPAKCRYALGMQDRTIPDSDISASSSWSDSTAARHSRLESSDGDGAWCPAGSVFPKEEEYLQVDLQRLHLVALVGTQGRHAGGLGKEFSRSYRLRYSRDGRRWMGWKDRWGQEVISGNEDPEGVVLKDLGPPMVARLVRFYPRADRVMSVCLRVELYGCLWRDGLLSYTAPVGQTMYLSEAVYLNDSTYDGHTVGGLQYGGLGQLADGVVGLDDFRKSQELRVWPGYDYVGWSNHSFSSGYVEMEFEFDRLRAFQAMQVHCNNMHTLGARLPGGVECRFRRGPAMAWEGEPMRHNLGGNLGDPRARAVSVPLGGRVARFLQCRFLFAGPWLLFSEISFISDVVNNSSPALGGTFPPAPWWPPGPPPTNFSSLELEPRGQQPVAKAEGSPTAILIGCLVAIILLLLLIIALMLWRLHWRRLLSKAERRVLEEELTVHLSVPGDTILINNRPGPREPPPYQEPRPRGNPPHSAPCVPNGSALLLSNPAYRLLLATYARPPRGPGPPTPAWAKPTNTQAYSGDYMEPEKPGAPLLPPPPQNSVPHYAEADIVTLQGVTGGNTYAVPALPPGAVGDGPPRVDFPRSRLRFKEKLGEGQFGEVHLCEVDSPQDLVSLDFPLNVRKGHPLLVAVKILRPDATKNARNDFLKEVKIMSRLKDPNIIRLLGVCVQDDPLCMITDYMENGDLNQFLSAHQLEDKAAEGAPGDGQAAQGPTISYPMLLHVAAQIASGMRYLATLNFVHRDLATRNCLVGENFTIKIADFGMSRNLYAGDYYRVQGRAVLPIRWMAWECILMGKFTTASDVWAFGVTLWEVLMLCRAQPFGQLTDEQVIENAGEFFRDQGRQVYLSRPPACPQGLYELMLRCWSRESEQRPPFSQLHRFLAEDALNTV
Chain of Casein kinase I isoform gamma-3 (Homo sapiens) (Q9Y6M4 whole entry, looked up, the tested form may be a part, canonical isoform): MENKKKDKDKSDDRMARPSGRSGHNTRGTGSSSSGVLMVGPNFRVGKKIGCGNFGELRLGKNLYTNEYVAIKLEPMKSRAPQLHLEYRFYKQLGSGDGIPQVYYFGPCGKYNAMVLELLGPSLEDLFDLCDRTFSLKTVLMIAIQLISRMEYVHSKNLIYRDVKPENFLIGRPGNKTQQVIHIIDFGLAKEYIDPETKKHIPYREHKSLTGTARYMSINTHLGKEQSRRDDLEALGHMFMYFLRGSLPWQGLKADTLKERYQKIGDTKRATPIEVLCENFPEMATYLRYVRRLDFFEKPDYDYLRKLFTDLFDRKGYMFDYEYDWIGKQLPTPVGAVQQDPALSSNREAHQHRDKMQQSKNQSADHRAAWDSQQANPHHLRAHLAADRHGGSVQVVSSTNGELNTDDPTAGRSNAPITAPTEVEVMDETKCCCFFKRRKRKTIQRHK
Chain of Casein kinase I isoform gamma-2 (Homo sapiens) (P78368 whole entry, looked up, the tested form may be a part, canonical isoform): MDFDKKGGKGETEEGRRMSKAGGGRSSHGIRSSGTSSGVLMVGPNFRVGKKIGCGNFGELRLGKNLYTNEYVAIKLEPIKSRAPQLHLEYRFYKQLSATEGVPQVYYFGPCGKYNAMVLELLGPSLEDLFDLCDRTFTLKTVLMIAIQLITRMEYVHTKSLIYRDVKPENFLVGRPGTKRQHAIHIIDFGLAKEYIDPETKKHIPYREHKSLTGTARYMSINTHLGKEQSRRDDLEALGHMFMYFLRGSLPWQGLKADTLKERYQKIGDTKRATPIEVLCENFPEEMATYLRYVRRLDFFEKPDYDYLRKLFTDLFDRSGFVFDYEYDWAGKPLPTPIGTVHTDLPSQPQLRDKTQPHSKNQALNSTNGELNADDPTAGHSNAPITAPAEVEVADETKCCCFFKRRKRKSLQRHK
Chain of Epidermal growth factor receptor (P00533 whole entry): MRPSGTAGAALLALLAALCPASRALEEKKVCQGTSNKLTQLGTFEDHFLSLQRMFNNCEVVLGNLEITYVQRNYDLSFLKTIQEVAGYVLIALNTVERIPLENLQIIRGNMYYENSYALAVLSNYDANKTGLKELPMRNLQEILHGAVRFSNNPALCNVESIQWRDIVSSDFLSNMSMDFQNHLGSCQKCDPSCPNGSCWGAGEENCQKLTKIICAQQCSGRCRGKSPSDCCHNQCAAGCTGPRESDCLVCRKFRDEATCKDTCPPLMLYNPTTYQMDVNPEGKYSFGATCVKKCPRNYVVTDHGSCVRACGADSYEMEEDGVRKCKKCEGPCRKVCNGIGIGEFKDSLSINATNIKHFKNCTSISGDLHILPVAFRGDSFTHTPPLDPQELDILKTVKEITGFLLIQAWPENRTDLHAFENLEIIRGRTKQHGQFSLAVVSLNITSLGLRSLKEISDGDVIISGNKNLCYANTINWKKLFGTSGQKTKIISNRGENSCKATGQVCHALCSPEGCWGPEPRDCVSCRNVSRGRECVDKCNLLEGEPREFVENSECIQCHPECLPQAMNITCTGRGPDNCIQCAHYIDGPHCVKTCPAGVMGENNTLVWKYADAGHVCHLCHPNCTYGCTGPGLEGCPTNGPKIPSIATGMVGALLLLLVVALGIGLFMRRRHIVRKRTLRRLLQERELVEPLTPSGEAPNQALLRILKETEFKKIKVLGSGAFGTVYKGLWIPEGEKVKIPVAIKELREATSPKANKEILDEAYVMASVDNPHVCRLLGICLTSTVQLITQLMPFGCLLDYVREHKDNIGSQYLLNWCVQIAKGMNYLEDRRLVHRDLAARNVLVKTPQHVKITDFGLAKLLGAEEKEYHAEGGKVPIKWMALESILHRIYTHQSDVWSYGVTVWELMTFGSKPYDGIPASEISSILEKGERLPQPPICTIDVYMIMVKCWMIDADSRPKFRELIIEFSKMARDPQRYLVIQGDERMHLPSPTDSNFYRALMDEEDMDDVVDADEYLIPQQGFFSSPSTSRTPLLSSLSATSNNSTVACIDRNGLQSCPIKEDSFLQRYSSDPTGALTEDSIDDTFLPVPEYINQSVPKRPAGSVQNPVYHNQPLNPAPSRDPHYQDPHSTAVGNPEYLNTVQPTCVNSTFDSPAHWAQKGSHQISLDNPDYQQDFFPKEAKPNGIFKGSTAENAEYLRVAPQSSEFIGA
Chain of Cyclin-dependent kinase 16 (Homo sapiens) (Q00536 whole entry, the tested form may be a part, canonical isoform): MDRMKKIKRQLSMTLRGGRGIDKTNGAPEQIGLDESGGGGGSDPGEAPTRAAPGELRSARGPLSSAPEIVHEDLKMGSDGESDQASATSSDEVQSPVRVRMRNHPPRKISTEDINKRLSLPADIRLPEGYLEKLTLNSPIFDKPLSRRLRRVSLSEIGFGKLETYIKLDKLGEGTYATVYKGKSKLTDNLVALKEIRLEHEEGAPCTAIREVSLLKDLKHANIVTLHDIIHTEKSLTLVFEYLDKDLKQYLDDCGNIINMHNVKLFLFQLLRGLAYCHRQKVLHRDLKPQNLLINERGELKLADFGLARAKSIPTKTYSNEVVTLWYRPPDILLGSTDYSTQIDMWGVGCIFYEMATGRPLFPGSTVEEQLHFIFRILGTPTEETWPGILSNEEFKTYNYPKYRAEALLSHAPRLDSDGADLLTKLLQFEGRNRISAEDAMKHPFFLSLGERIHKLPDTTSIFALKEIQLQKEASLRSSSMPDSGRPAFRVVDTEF

Q: Which IC50 [1] does the source give for `C=CC(=O)Nc1cc(Nc2cc(-c3cccc(NC(=O)c4ccc(C(C)(C)C)cc4)c3C)cn(C)c2=O)ccc1C(=O)N1CCOCC1` here?
A: > 10 µM

Q: What about the GI50 [2] of the same compound?
A: 7.3 µM

Q: What about the AUC(0-t) [3] of the same compound?
A: 22 ng·h/mL

Q: And the Activity [4]?
A: 94%

Q: What about the Activity [5] of the same compound?
A: 96%

Q: And the Activity [6]?
A: 98%

Q: And the Activity [7]?
A: 100%

Q: And the Activity [8]?
A: 94%

Q: And the Activity [9]?
A: 90%

Q: And the Activity [10]?
A: 100%

Q: What about the Activity [11] of the same compound?
A: 91%

Q: And the Activity [12]?
A: 100%

Q: What about the Activity [13] of the same compound?
A: 99%

Q: What about the Activity [14] of the same compound?
A: 84%

Q: What about the Activity [15] of the same compound?
A: 100%

Q: And the Activity [16]?
A: 82%

Q: And the Activity [17]?
A: 98%

Q: And the Activity [18]?
A: 97%

Q: And the Activity [19]?
A: 93%

Q: What about the Activity [20] of the same compound?
A: 100%

Q: What about the Activity [21] of the same compound?
A: 100%

Q: And the Activity [22]?
A: 99%

Q: And the Activity [23]?
A: 100%

Q: What about the Activity [24] of the same compound?
A: 100%

Q: What about the Activity [25] of the same compound?
A: 95%

Q: What about the Activity [26] of the same compound?
A: 100%
